Measured values: patent US11325938B2, “CD73 inhibitors” (ORIC Pharmaceuticals, Inc., priority 2018, dated 2022)

target: CD73 (Homo sapiens (Human), UniProt P21589); test: Biochemical assay: inhibition of CD73 activity (AMP hydrolysis, Malachite Green readout); conditions: CD73 0.3208 nM, AMP 15 μM, 25 mM Tris-HCl pH 7.4, RT, absorbance 620 nm
Procedure: Example A1: Biochemical Assay
Assay Reaction Conditions
• Assay Volume: 70 μl • Reaction Volume: 50 μl • CD73: 0.3208 nM • AMP: 15 μM • Assay Buffer: 25 mM Tris-HCL, pH 7.4, 0.01% Brij-35, 0.01% BSA, 5 mM MgCl2 Assay Procedure:
Made dose titration of testing compounds in assay buffer, 10 points ½ log titrations in duplicates starting at 100 μM.
Added 25 μl of CD73 to each well for a final concentration of 320 pM.
Incubated at RT for 15 min.
Added 25 μl of AMP to each well for a final concentration of 15 μM.
Incubated at RT for 10 min.
Added 10 μl of Malachite Green Reagent A, incubate at RT for 10 min.
Added 10 of Malachite Green Reagent B, incubate at RT for 45 min.
Read the Absorbance on Envision plate reader using excitation filter: Cy5 […].
The ability of the compounds disclosed herein to inhibit CD73 activity was quantified and the respective IC50 values were determined. Table 2 provides the biochemical IC50 values of compounds disclosed herein.

Chain of CD73 (P21589 27-574): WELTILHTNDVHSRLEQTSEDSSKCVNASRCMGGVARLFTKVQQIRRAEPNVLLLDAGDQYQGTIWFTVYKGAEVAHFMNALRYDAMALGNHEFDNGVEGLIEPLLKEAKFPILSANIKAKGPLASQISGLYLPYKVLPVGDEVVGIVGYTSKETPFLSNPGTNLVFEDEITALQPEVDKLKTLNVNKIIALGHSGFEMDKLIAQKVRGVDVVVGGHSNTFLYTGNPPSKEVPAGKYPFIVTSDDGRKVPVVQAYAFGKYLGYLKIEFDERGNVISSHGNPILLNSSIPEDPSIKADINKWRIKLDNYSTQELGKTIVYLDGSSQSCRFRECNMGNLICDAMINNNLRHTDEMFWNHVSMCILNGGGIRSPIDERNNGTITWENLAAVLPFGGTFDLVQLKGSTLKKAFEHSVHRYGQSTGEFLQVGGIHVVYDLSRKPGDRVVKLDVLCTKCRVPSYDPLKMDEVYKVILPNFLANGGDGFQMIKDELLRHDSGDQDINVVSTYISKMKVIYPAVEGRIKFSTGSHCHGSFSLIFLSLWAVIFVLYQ

IC50, ≤ 100 nM:
O=C(O)COCC(CO)(OC[C@H]1O[C@@H](n2ncc3c(NC4CCCC4)nc(Cl)nc32)[C@H](O)[C@@H]1O)P(=O)(O)O (mixture of isomers) [Example 198, rac-2-(2-(((2R,3S,4R,5R)-5-(6-chloro-4-(cyclopentylamino)-1H-pyrazolo[3,4-d]pyrimidin-1-yl)-3,4-dihydroxytetrahydrofuran-2-yl)methoxy)-3-hydroxy-2-phosphonopropoxy)acetic acid]
C[C@](CO)(OC[C@H]1O[C@@H](n2ncc3c(NC4CCCC4)nc(C#CCO)nc32)[C@H](O)[C@@H]1O)P(=O)(O)O (racemic) [Example 199, rac-((R)-2-(((2S,3R,4S,5S)-5-(4-(cyclopentylamino)-6-(3-hydroxyprop-1-yn-1 yl)-1H-pyrazolo[3,4-d]pyrimidin-1-yl)-3,4-dihydroxytetrahydrofuran-2-yl)methoxy)-1-hydroxypropan-2-yl)phosphonic acid]
O=P(O)(O)C(CO)(CO)OC[C@H]1O[C@@H](n2ncc3c(NC4CCCC4)cc(Cl)nc32)[C@H](O)[C@@H]1O (racemic) [Example 200, rac-(2-(((2R,3S,4R,5R)-5-(6-chloro-4-(cyclopentylamino)-1H-pyrazolo[3,4-b]pyridin-1-yl)-3,4-dihydroxytetrahydrofuran-2-yl)methoxy)-1,3-dihydroxypropan-2-yl)phosphonic acid]
O=P(O)(O)C(CO)(CO)OC[C@H]1O[C@@H](n2ncc3c(NCc4ccc(Cl)cc4)nc(Cl)nc32)[C@H](O)[C@@H]1O (racemic) [Example 201, rac-(2-(((2R,3S,4R,5R)-5-(6-chloro-4-((4-chlorobenzyl)amino)-1H-pyrazolo[3,4-d]pyrimidin-1-yl)-3,4-dihydroxytetrahydrofuran-2-yl)methoxy)-1,3-dihydroxypropan-2-yl)phosphonic acid]
O=P(O)(O)C(CO)(CO)OC[C@H]1O[C@@H](n2ncc3c(NCC4CC4)nc(CO)nc32)[C@H](O)[C@@H]1O (racemic) [Example 202, rac-(2-(((2R,3S,4R,5R)-5-(4-((cyclopropylmethyl)amino)-6-(hydroxymethyl)-1H-pyrazolo[3,4-d]pyrimidin-1-yl)-3,4-dihydroxytetrahydrofuran-2-yl)methoxy)-1,3-dihydroxypropan-2-yl)phosphonic acid]
O=P(O)(O)C(CO)(CO)OC[C@H]1O[C@H](n2ncc3c(NCc4ccc(Cl)cc4)nc(Cl)nc32)[C@H](O)[C@@H]1O (racemic) [Example 203, rac-(2-(((2R,3S,4R,5S)-5-(6-chloro-4-((4-chlorobenzyl)amino)-1H-pyrazolo[3,4-d]pyrimidin-1-yl)-3,4-dihydroxytetrahydrofuran-2-yl)methoxy)-1,3-dihydroxypropan-2-yl)phosphonic acid]
O=P(O)(O)C(CO)(CO)OC[C@H]1O[C@@H](n2ncc3c(NC4CCC45CCC5)nc(Cl)nc32)[C@H](O)[C@@H]1O (mixture of isomers) [Example 204, rac-(2-(((2R,3S,4R,5R)-5-(6-chloro-4-(spiro[3.3]heptan-1-ylamino)-1H-pyrazolo[3,4-d]pyrimidin-1-yl)-3,4-dihydroxytetrahydrofuran-2-yl)methoxy)-1,3-dihydroxypropoan-2-yl)phosphonic acid]
C[C@@](CO)(OC[C@H]1O[C@@H](n2ncc3c(NC4CCCC4)nc(C#CCO)nc32)[C@H](O)[C@@H]1O)P(=O)(O)O (racemic) [Example 205, rac-((R)-2-(((2R,3S,4R,5R)-5-(4-(cyclopentylamino)-6-(3-hydroxyprop-1-yn-1-yl)-1H-pyrazolo[3,4-d]pyrimidin-1-yl)-3,4-dihydroxytetrahydrofuran-2-yl)methoxy)-1-hydroxypropan-2-yl)phosphonic acid]
O=c1[nH]c(CC(CO)(OC[C@H]2O[C@@H](n3ncc4c(NC5CCCC5)nc(Cl)nc43)[C@H](O)[C@@H]2O)P(=O)(O)O)no1 (mixture of isomers) [Example 206, rac-(2-(((2R,3S,4R,5R)-5-(6-chloro-4-(cyclopentylamino)-1H-pyrazolo[3,4-d]pyrimidin-1-yl)-3,4-dihydroxytetrahydrofuran-2-yl)methoxy)-1-hydroxy-3-(5-oxo-4,5-dihydro-1,2,4-oxadiazol-3-yl)propan-2-yl)phosphonic acid]
O=P(O)(O)C(CO)(COCC(F)(F)F)OC[C@H]1O[C@@H](n2ncc3c(NC4CCCC4)nc(Cl)nc32)[C@H](O)[C@@H]1O (mixture of isomers) [Example 207, rac-(2-(((2R,3S,4R,5R)-5-(6-chloro-4-(cyclopentylamino)-1H-pyrazolo[3,4-d]pyrimidin-1-yl)-3,4-dihydroxytetrahydrofuran-2-yl)methoxy)-1-hydroxy-3-(2,2,2-trifluoroethoxy)propan-2-yl)phosphonic acid]
O=P(O)(O)C(CO)(COCC(F)(F)F)OC[C@H]1O[C@@H](n2ncc3c(NC4CCCC4)nc(Cl)nc32)[C@H](O)[C@@H]1O (mixture of isomers) [Example 208, rac-(2-(((2R,3S,4R,5R)-5-(6-chloro-4-(cyclopentylamino)-1H-pyrazolo[3,4-d]pyrimidin-1-yl)-3,4-dihydroxytetrahydrofuran-2-yl)methoxy)-1-hydroxy-3-(2,2,2-trifluoroethoxy)propan-2-yl)phosphonic acid]
COCC(CC(=O)O)(OC[C@H]1O[C@@H](n2ncc3c(NC4CCCC4)nc(Cl)nc32)[C@H](O)[C@@H]1O)P(=O)(O)O (mixture of isomers) [Example 210, rac-3-(((2R,3S,4R,5R)-5-(6-chloro-4-(cyclopentyalmino)-1H-pyrazolo[3,4-d]pyrimidin-1-yl)-3,4-dihydroxytetrahydrofuran-2-yl)methoxy)-4-methoxy-3-phosphonobutanoic acid]
CN(c1nc(Cl)nc2c1cnn2[C@@H]1O[C@H](COC(CO)(CO)P(=O)(O)O)[C@@H](O)[C@H]1O)C1CCCC1 (racemic) [Example 211, rac-(2-(((2R,3S,4R,5R)-5-(6-chloro-4-(cyclopentyl(methyl)amino)-1H-pyrazolo[3,4-d]pyrimidin-1-yl)-3,4-dihydroxytetrahydrofuran-2-yl)methoxy)-1,3-dihydroxypropan-2-yl)phosphonic acid]
COC[C@@](Cc1nn[nH]n1)(OC[C@H]1O[C@@H](n2ncc3c(NC4CCCC4)nc(Cl)nc32)[C@H](O)[C@@H]1O)P(=O)(O)O (racemic) [Example 212, rac-((R)-2-(((2S,3R,4S,5S)-5-(6-chloro-4-(cyclopentylamino)-1H-pyrazolo[3,4-d]pyrimidin-1-yl)-3,4-dihydroxytetrahydrofuran-2-yl)methoxy)-1-methoxy-3-(2H-tetrazol-5-yl)propan-2-yl)phosphonic acid]
O=P(O)(O)[C@@](CO)(Cc1nn[nH]n1)OC[C@H]1O[C@@H](n2ncc3c(NC4CCC4)nc(Cl)nc32)[C@H](O)[C@@H]1O (racemic) [Example 213, rac-((R)-2-(((2R,3S,4R,5R)-5-(6-chloro-4-(cyclobutylamino)-1H-pyrazolo[3,4-d]pyrimidin-1-yl)-3,4-dihydroxytetrahydrofuran-2-yl)methoxy)-1-hydroxy-3-(2H-tetrazol-5-yl)propan-2-yl)phosphonic acid]
O=P(O)(O)[C@](CO)(Cc1nn[nH]n1)OC[C@H]1O[C@@H](n2ncc3c(NC4CCC4)nc(Cl)nc32)[C@H](O)[C@@H]1O (racemic) [Example 214, rac-((R)-2-(((2S,3R,4S,5S)-5-(6-chloro-4-(cyclobutylamino)-1H-pyrazolo[3,4-d]pyrimidin-1-yl)-3,4-dihydroxytetrahydrofuran-2-yl)methoxy)-1-hydroxy-3-(2H-tetrazol-5-yl)propan-2-yl)phosphonic acid]
NC(=O)OC[C@@](CO)(OC[C@H]1O[C@@H](n2ncc3c(NC4CCCC4)nc(Cl)nc32)[C@H](O)[C@@H]1O)P(=O)(O)O (racemic) [Example 215, rac-((R)-1-(carbamoyloxy)-2-(((2S,3R,4S,5S)-5-(6-chloro-4-(cyclopentylamino)-1H-pyrazolo[3,4-d]pyrimidin-1-yl)-3,4-dihydroxytetrahydrofuran-2-yl)methoxy)-3-hydroxypropan-2-yl)phosphonic acid]
NC(=O)OC[C@](CO)(OC[C@H]1O[C@@H](n2ncc3c(NC4CCCC4)nc(Cl)nc32)[C@H](O)[C@@H]1O)P(=O)(O)O (racemic) [Example 216, rac-((R)-1-(carbamoyloxy)-2-(((2R,3S,4R,5R)-5-(6-chloro-4-(cyclopentylamino)-1H-pyrazolo[3,4-d]pyrimidin-1-yl)-3,4-dihydroxytetrahydrofuran-2-yl)methoxy)-3-hydroxypropan-2-yl)phosphonic acid]
O=P(O)(O)[C@](CO)(Cc1nn[nH]n1)OC[C@H]1O[C@@H](n2ncc3c(NC4CCCC4)nc(CO)nc32)[C@H](O)[C@@H]1O (racemic) [Example 217, rac-((R)-2-(((2S,3R,4S,5S)-5-(4-(cyclopentylamino)-6-(hydroxymethyl)-1H-pyrazolo[3,4-d]pyrimidin-1-yl)-3,4-dihydroxytetrahydrofuran-2-yl)methoxy)-1-hydroxy-3-(2H-tetrazol-5-yl)propan-2-yl)phosphonic acid]
